Data taken from ChEMBL document CHEMBL4311946, “Mechanistic Insight on the Mode of Action of Colletoic Acid” (J Med Chem, 2019).
Calls of active or inactive are those of the source. The rule behind the calls is not given here.

What was measured:
[1] = Half life in human plasma; assay type: ADME, cell-free
[2] = test system: 3T3-L1; assay: Anti-adipogenic activity in differentiated mouse 3T3L1 cells assessed as reduction in 11beta-HSD1 expression at 50 uM measured on day 7 by Western blot analysis; assay type: functional, cell-based
[3] = test system: 3T3-L1; assay: Anti-adipogenic activity in mouse 3T3L1 preadipocytes assessed as reduction in C/EBPbeta mRNA expression at 50 to 100 uM measured daily for 2 days under induction media containing dehydrocorticosterone/cortisone by SYBR green dye-based qRT-PCR analysis; assay type: functional, cell-based
[4] = test system: 3T3-L1; assay: Cell cycle arrest in mouse 3T3L1 preadipocytes up to 1 mM measured after 24 hrs under non-differentiating medium by propidium iodide staining-based flow cytometry; assay type: ADME; details: 3t3-l1, 24 h
[5] = test system: 3T3-L1; assay: Anti-adipogenic activity in differentiated mouse 3T3L1 cells assessed as reduction in ACACB mRNA expression at 50 to 100 uM measured after 2 to 7 days by SYBR green dye-based qRT-PCR analysis; assay type: functional, cell-based
[6] = target: T1, Glucocorticoid receptor (Homo sapiens) (UniProt P04150); assay: Antagonist activity at GR in human MDA-MB-231 cells at 50 uM measured after 4 hrs in presence of dexamethasone by luciferase reporter gene assay; assay type: cell-based
T1 sequence (whole entry): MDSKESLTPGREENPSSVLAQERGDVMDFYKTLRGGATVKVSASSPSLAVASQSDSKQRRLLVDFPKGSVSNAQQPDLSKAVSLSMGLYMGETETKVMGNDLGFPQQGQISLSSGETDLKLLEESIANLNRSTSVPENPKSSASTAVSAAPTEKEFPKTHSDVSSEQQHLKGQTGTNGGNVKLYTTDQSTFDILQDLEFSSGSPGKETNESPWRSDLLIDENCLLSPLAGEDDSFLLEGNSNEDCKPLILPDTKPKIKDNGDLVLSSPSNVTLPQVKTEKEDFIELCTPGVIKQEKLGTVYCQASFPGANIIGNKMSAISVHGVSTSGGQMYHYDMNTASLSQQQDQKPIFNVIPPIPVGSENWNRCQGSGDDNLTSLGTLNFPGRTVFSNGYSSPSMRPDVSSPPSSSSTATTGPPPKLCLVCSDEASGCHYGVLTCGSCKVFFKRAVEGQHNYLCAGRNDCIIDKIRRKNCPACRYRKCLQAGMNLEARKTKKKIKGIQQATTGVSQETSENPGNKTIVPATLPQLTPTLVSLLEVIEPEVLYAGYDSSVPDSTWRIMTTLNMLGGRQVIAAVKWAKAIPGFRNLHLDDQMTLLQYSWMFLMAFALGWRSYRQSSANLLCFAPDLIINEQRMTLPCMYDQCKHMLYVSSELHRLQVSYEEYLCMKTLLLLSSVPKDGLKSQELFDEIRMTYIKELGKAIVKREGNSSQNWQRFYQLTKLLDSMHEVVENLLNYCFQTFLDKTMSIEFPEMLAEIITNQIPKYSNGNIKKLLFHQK

[7] = test system: Homo sapiens; assay: (§1) Anti-adipogenic activity in human subcutaneous preadipocytes assessed as decrease in lipid accumulation at 50 uM incubated for 48 hrs under induction medium containing hydrocortisone hemi-succinate prior to compound washout followed by shifting to differentiation medium containing compound supplemented with fresh medium every 48 to 72 hrs for 9 to 14 days by oil red O staining-based microscopic analysis; assay type: functional, cell-based
[8] = test system: 3T3-L1; assay: Anti-adipogenic activity in mouse 3T3L1 preadipocytes assessed as decrease in lipid accumulation at 50 uM incubated for 48 hrs under induction medium containing dehydrocorticosterone/cortisone followed by shifting to differentiation medium and measured after 7 days by Oil red O staining-based microscopic analysis; assay type: functional, cell-based
[9] = target: T2, Peroxisome proliferator-activated receptor gamma (Homo sapiens) (UniProt P37231); assay: Antagonist activity at human PPARgamma expressed in 293H cells assessed as reduction in rosiglitazone-induced transcriptional response at 0.002 to 4 uM preincubated for 30 mins followed by rosiglitazone addition and measured after 16 hrs by reporter gene-based FRET assay; assay type: cell-based
T2 sequence (whole entry): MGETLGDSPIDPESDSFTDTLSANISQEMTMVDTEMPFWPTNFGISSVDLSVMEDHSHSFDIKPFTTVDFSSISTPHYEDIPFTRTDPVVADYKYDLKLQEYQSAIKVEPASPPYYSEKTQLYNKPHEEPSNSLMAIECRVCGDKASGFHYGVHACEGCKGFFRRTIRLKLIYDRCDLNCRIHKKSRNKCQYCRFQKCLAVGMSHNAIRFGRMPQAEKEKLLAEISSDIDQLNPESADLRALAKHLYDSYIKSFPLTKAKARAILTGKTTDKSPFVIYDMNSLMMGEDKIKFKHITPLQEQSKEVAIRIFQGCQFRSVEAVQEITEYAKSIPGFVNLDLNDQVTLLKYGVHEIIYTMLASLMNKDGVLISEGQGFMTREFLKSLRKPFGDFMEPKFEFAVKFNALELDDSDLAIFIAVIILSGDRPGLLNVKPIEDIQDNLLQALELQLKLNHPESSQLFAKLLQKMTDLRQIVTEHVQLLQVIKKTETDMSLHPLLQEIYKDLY

[10] = test system: 3T3-L1; assay: Cytotoxicity against mouse 3T3L1 cells measured after 72 hrs by celltiter-glo luminescent cell viability assay; assay type: ADME, cell-based; details: 3T3-L1, 72 h
[11] = species on record: Homo sapiens; assay: Anti-adipogenic activity in human visceral preadipocytes assessed as decrease in lipid accumulation at 50 uM measured after 3 days under induction medium containing hydrocortisone hemi-succinate by oil red O staining-based microscopic analysis; assay type: functional, cell-based
[12] = test system: Fibroblast; assay: Effect on nascent protein synthesis in mouse fibroblasts assessed as reduction in O-Propargyl-puromycin incorporation at 50 uM by fluorescent azide/pico green dye-based confocal microscopic analysis; assay type: ADME, cell-based
[13] = species on record: Homo sapiens; assay: as §1, with “visceral” for “subcutaneous”; assay type: functional, cell-based
[14] = test system: 3T3-L1; assay: Anti-adipogenic activity in differentiated mouse 3T3L1 cells assessed as reduction in PGC1alpha expression at 50 uM measured on day 7 by Western blot analysis; assay type: functional, cell-based
[15] = species on record: Homo sapiens; assay: as §1, with “visceral” for “subcutaneous”, “reduction” for “decrease”, “pre-adipocyte differentiation into matured adipocytes” for “lipid accumulation”; assay type: functional, cell-based
[16] = test system: 3T3-L1; assay: Anti-adipogenic activity in differentiated mouse 3T3L1 cells assessed as reduction in PPARgamma expression at 50 uM measured on day 3 by Western blot analysis; assay type: functional, cell-based
[17] = test system: 3T3-L1; assay: Anti-adipogenic activity in mouse 3T3L1 preadipocytes assessed as reduction in C/EBPdelta mRNA expression at 50 to 100 uM measured daily for 2 days under induction media containing dehydrocorticosterone/cortisone by SYBR green dye-based qRT-PCR analysis; assay type: functional, cell-based

For CC1=CC[C@@]2(C[C@@H]1O)[C@@H](C(=O)O)CC[C@H]2C(C)C, the half-life [1] was greater than 48 h, the Activity [2] was “Active” and the Activity [3] was “Active”. The Activity [4] was “Non-Toxic”, the Activity [5] was “Active” and the Activity [6] was “inactive”. The Activity [7] was “Active”, the Activity [8] was “Active” and the Activity [9] was “inactive”. For the same compound, the EC50 [10] was greater than 500 µM, the Activity [11] was “inactive” and the Activity [12] was “Non-Toxic”. The Activity [13] was “Active”, the Activity [14] was “Active” and the Activity [15] was “Active”. The Activity [16] was “inactive” and the Activity [17] was “Active”.
